The record followed here is patent publication US6646006B2, “Enhancement of vascular function by modulation of endogenous nitric oxide production or activity” (The Board of Trustees of the Leland Stanford Junior …, priority 1993, dated 2003).

Molecules are shown by their SMILES.

Data set [1] has as its system hypercholesterolemic rabbits. The data set is described as follows: Oral arginine in cholesterol-fed rabbits: biochemical and physiological measurements. It is filed as in vivo, rabbit. The settings on record: 1% cholesterol diet + 2.25% L-arginine HCl in drinking water, vs Control or Chol diet. An excerpt:
Study design: (See, Cooke et al., 1992, supra) Male New Zealand white rabbits (n=49) were assigned to one of three treatment groups: 10 were fed with normal rabbit chow for ten weeks (Control); 19 received chow enriched with 1% cholesterol (Chol); and 20 received a 1% cholesterol diet supplemented with 2.25% L-arginine hydrochloride in the drinking water (Arg.). […] Subsequently the animals were sacrificed and the left main coronary artery and the thoracic aorta were harvested for studies of vascular reactivity and histomorphometry. In some animals, blood was collected for studies of platelet and monocyte reactivity.
Results: Biochemical and physiological measurements. […] Serum cholesterol measurements were elevated equally in both groups receiving the 1% cholesterol diet [50±6 vs. 1629±422 vs. 1852±356 mg/dl respectively for Control (=10), Chol (=13), and Arg (=14)].

For the next data set, the system named is monocytes. The experiment in a line: Functional binding assay: rabbit blood mononuclear cells to bEnd3 endothelial cells. The data set is classed as in vivo. Particulars: Arg vs vehicle-treated Chol animals. An excerpt:
To determine if oral arginine supplementation affects monocyte adherence, blood was collected from rabbits fed normal chow (=6) a 1% cholesterol diet (=6), or a 1% cholesterol diet supplemented with L-arginine (=6), as described above. Mononuclear cells were purified from blood by Ficoll-paque density gradient centrifugation. In these preliminary studies, adhesion was examined of blood leukocytes to a transformed endothelial cell line, bEnd3 (mouse brain-derived polyoma middle T antigen transformed endothelial cells). The Bend3 cells display the morphology of endothelial cells, and like human endothelial cells are capable of uptake of acetylated low-density lipoprotein and express adhesion molecules in a cytokine-regulatable fashion. Cultured cells were grown to confluence in 0.5 cm^2 Lab-Tek chamber slides (MilesScientific) and treated with control medium or with LPS (1 mg/ml) or TNFα (25 U/ml) for 18 hours. Cultures were washed with fresh assay buffer, and low, medium, or high concentrations of leukocytes (0.75, 1.5, or 3×10^5 cells/ml, respectively) were added per well. Following a 30-minute incubation on a rocking platform at room temperature to allow binding, the slides were inverted and immersed in buffer containing 2% (v/v) glutaraldehyde, such that non-adherent cells were lost and adherent cells were fixed to the monolayer. […]

For another data set, the system named is MCP-1. The data set is described as follows: Northern analysis of MCP-1 expression in thoracic aortae. It is filed as in vivo, rabbit. Particulars: two weeks; L-NA on normal chow, Arg on high cholesterol diet. An excerpt: To investigate the role of endogenous NO in the regulation of MCP-1 in vivo, NZW rabbits were fed normal chow, normal chow plus nitro-L-arginine (L-NA) (to inhibit vascular NO synthesis), high cholesterol diet (Chol), or high cholesterol diet supplemented with L-arginine (Arg) (to enhance NO synthesis). After two weeks, thoracic aortae were harvested and total RNA was isolated. […] These studies indicate that the anti-atherogenic effect of NO may be mediated in part by its inhibition of MCP-1 expression. NO inhibits the generation of superoxide anion by the vascular cells and thereby turns off an oxidant-responsive transcriptional pathway (i.e. NFκB-mediated transcription) activating MCP-1 expression.

Turning to `N=C(N)NCCC[C@H](N)C(=O)O` [L-arginine], the plasma arginine levels result in data set [1] is given as “twofold elevation”. Moreover, in the data set on monocytes, the “adherence of monocytes to bEnd3 cells” value is listed as “much less adherent”. Moreover, the “expression of MCP-1 in aortae” value with MCP-1 is reported as “decreased”.
